In US20150374673A1, “Combination Therapy for the Treatment of Nosocomial Pneumonia” (priority 2013, published 2015):

What was measured:
K. pneumoniae = test: MIC, CLSI broth microdilution in CAMHB with 0-10% pulmonary surfactant (avibactam fixed at 4 μg/mL in combination); assay type: cell-based; settings: Klebsiella pneumoniae
Protocol: (§1) The bacterial strains used in this testing were part of the microbiological culture collection housed at AstraZeneca R&D Boston (AstraZeneca Research Collection, designated ARC). The panel of bacterial isolates used for this testing was comprised of five CLSI QC reference strains and the remainder were either recent clinical isolates expressing β-lactamases or isolates from the primary bacterial screening panels.
(§2) MIC values were determined using the CLSI broth microdilution methodology with slight variation. Stock compound mother plates were prepared and used to spot 2 μL aliquots of serial 2-fold drug dilutions to columns 1-11 of 96-well daughter plates using a Perkin-Elmer MiniTrak™ MultiPosition dispenser. […] An inoculum volume of 100 μL (5×10E^5 CFU/mL) in CAMHB containing 0, 1, 2.5, 5, or 10% pulmonary surfactant was added using a multichannel Finnpipette® to each well of the 96-well plate.
(§3) The minimum inhibitory concentration (MIC) values against each organism/drug combination were determined using broth microdilution methodology according to CLSI guidelines. The recommended reference bacterial strains for each test group and reference compounds were incorporated into each test. For Gram-negatives, the reference bacterial strains were Escherichia coli ATCC 25922, E. coli ATCC 35218, Klebsiella pneumoniae ATCC 700603, and Pseudomonas aeruginosa ATCC 27853. Staphylococcus aureus ATCC 29213 was the reference bacterial strain for the Gram-positives.
(§4) MIC values for individual isolates were read visually. The MICs for each compound or combination in pulmonary surfactant was compared to the compound or combination tested in CAMHB alone.

E. coli = test: as above; assay type: cell-based; settings: Escherichia coli
Protocol: as §1, §2, §3, §4

[1] = Protein binding, equilibrium dialysis chamber, LC-MS/MS; assay type: in vitro ADME
Protocol: Blood was separated from plasma using a cooled centrifuge. Samples were split and stored at −80° C.

NC(=O)[C@@H]1CC[C@@H]2CN1C(=O)N2OS(=O)(=O)[O-].[Na+] [avibactam, [(2S,5R)-2-carbamoyl-7-oxo-1,6-diazabicyclo[3.2.1]octan-6-yl]hydrogen sulfate]
MIC (K. pneumoniae; K. pneumoniae ARC1865 (Primary Screening Panel), surfactant concentration cell empty): > 64 µg/mL
MIC (K. pneumoniae; K. pneumoniae ARC2528 (Clinical isolate), surfactant 0%): 64 µg/mL
MIC (K. pneumoniae; K. pneumoniae ARC2528 (Clinical isolate), surfactant 1%): 64 µg/mL
MIC (K. pneumoniae; K. pneumoniae ARC2528 (Clinical isolate), surfactant 2.5%): 64 µg/mL
MIC (K. pneumoniae; K. pneumoniae ARC2528 (Clinical isolate), surfactant 5%): 64 µg/mL
MIC (K. pneumoniae; K. pneumoniae ARC2528 (Clinical isolate), surfactant 10%): 32 µg/mL
MIC (K. pneumoniae; K. pneumoniae ARC2929 (KPC-3), surfactant 0%): 8 µg/mL
MIC (K. pneumoniae; K. pneumoniae ARC2929 (KPC-3), surfactant 1%): 8 µg/mL
MIC (K. pneumoniae; K. pneumoniae ARC2929 (KPC-3), surfactant 2.5%): 8 µg/mL
MIC (K. pneumoniae; K. pneumoniae ARC2929 (KPC-3), surfactant 5%): 8 µg/mL
MIC (K. pneumoniae; K. pneumoniae ARC2929 (KPC-3), surfactant 10%): 8 µg/mL
MIC (K. pneumoniae; K. pneumoniae ARC2945 (KPC-2, SHV-11, TEM-1, OXA-9), surfactant 0%): 8 µg/mL
MIC (K. pneumoniae; K. pneumoniae ARC2945 (KPC-2, SHV-11, TEM-1, OXA-9), surfactant 1%): 8 µg/mL
MIC (K. pneumoniae; K. pneumoniae ARC2945 (KPC-2, SHV-11, TEM-1, OXA-9), surfactant 2.5%): 8 µg/mL
MIC (K. pneumoniae; K. pneumoniae ARC2945 (KPC-2, SHV-11, TEM-1, OXA-9), surfactant 5%): 8 µg/mL
MIC (K. pneumoniae; K. pneumoniae ARC2945 (KPC-2, SHV-11, TEM-1, OXA-9), surfactant 10%): 8 µg/mL
MIC (K. pneumoniae; K. pneumoniae ARC3713 (CTX-M-15, OXA-1/30, SHV-5, TEM-1), surfactant 0%): 16 µg/mL
MIC (K. pneumoniae; K. pneumoniae ARC3713 (CTX-M-15, OXA-1/30, SHV-5, TEM-1), surfactant 1%): 16 µg/mL
MIC (K. pneumoniae; K. pneumoniae ARC3713 (CTX-M-15, OXA-1/30, SHV-5, TEM-1), surfactant 2.5%): 16 µg/mL
MIC (K. pneumoniae; K. pneumoniae ARC3713 (CTX-M-15, OXA-1/30, SHV-5, TEM-1), surfactant 5%): 16 µg/mL
MIC (K. pneumoniae; K. pneumoniae ARC3713 (CTX-M-15, OXA-1/30, SHV-5, TEM-1), surfactant 10%): 16 µg/mL
MIC (E. coli; ATCC25922, E. coli ARC4 (CLSI QC strain, ATCC 25922), surfactant 0%): 32 µg/mL
MIC (E. coli; ATCC25922, E. coli ARC4 (CLSI QC strain, ATCC 25922), surfactant 1%): 32 µg/mL
MIC (E. coli; ATCC25922, E. coli ARC4 (CLSI QC strain, ATCC 25922), surfactant 2.5%): 32 µg/mL
MIC (E. coli; ATCC25922, E. coli ARC4 (CLSI QC strain, ATCC 25922), surfactant 5%): 16 µg/mL
MIC (E. coli; ATCC25922, E. coli ARC4 (CLSI QC strain, ATCC 25922), surfactant 10%): 16 µg/mL
MIC (E. coli; ATCC35218, E. coli ARC016 (ATCC 35218, TEM-1), surfactant 0%): 16 µg/mL
MIC (E. coli; ATCC35218, E. coli ARC016 (ATCC 35218, TEM-1), surfactant 1%): 16 µg/mL
MIC (E. coli; ATCC35218, E. coli ARC016 (ATCC 35218, TEM-1), surfactant 2.5%): 16 µg/mL
MIC (E. coli; ATCC35218, E. coli ARC016 (ATCC 35218, TEM-1), surfactant 5%): 16 µg/mL
MIC (E. coli; ATCC35218, E. coli ARC016 (ATCC 35218, TEM-1), surfactant 10%): 16 µg/mL
MIC (E. coli; E. coli ARC523 (W3110), surfactant 0%): > 64 µg/mL
MIC (E. coli; E. coli ARC523 (W3110), surfactant 1%): > 64 µg/mL
MIC (E. coli; E. coli ARC523 (W3110), surfactant 2.5%): > 64 µg/mL
MIC (E. coli; E. coli ARC523 (W3110), surfactant 5%): > 64 µg/mL
MIC (E. coli; E. coli ARC523 (W3110), surfactant 10%): > 64 µg/mL
MIC (E. coli; E. coli ARC3666 (CTX-M-15, OXA-1/30, SHV-31, TEM-1), surfactant 0%): 8 µg/mL
MIC (E. coli; E. coli ARC3666 (CTX-M-15, OXA-1/30, SHV-31, TEM-1), surfactant 1%): 8 µg/mL
MIC (E. coli; E. coli ARC3666 (CTX-M-15, OXA-1/30, SHV-31, TEM-1), surfactant 2.5%): 8 µg/mL
MIC (E. coli; E. coli ARC3666 (CTX-M-15, OXA-1/30, SHV-31, TEM-1), surfactant 5%): 8 µg/mL
MIC (E. coli; E. coli ARC3666 (CTX-M-15, OXA-1/30, SHV-31, TEM-1), surfactant 10%): 8 µg/mL
MIC (E. coli; E. coli ARC3690 (CTX-M-15, SHV-12), surfactant 0%): 16 µg/mL
MIC (E. coli; E. coli ARC3690 (CTX-M-15, SHV-12), surfactant 1%): 16 µg/mL
MIC (E. coli; E. coli ARC3690 (CTX-M-15, SHV-12), surfactant 2.5%): 16 µg/mL
MIC (E. coli; E. coli ARC3690 (CTX-M-15, SHV-12), surfactant 5%): 16 µg/mL
MIC (E. coli; E. coli ARC3690 (CTX-M-15, SHV-12), surfactant 10%): 16 µg/mL
fraction unbound [1]: 0.92
